Where a name gives a salt, the structure may show the parent alone. Read-outs that look alike come from different tables or passages of the source. Values belong to the compound of their own block, whether it stands above or below them.
Assays:
Human NTCP = target: T1, Human NTCP (Homo sapiens, UniProt Q14973); experiment: [3H]taurocholate uptake in cell lines expressing human NTCP (Compound 2); type: cell-based
T1 construct: expressed in transfected cells; peptide purchased from Pharmaron
T1 sequence (Q14973 1-349): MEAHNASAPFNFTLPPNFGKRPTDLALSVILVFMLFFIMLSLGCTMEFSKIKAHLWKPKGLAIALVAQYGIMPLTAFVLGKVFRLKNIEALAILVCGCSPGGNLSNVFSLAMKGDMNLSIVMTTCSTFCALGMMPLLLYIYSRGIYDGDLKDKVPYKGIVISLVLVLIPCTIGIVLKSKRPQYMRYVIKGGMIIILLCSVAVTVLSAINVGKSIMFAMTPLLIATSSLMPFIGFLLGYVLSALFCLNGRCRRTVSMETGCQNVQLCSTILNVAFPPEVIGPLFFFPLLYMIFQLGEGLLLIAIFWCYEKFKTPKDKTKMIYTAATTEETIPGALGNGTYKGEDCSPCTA
Experimental: (§1) NTCP and the related BA transporter apical sodium-dependent BA transporter (ASBT) from human were expressed in cell lines. Inhibition by Compound 2 was studied using [^3]taurocholate as substrate. Cryopreserved human hepatocytes infected with a clinical isolate of HBV were used for infection experiments. Two female non-human primates (NHPs) were dosed with Compound 2 via oral gavage at dose levels of Compound 2 ranging between 3-30 mg/kg once daily for 5 days. Total serum, urine, and fecal BAs were analyzed enzymatically and Compound 2 plasma concentrations were assessed via liquid chromatography-tandem mass spectrometry. The oral pharmacokinetics of Compound 2 was also studied in mice, rats, and dogs.

ASBT = target: T2, ASBT (Homo sapiens, UniProt Q12908); experiment: [3H]taurocholate uptake in cell lines expressing human ASBT (Compound 2); type: cell-based
T2 construct: expressed in transfected cells
T2 sequence (Q12908 1-348): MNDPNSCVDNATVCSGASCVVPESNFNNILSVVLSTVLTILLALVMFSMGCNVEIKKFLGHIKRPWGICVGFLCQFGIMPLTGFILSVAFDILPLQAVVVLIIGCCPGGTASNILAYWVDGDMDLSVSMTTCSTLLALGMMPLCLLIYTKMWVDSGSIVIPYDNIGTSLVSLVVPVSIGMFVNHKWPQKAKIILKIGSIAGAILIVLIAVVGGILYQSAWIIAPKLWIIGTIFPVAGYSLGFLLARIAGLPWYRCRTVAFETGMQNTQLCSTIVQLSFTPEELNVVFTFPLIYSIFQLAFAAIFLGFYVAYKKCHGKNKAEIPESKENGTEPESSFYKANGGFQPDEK
Experimental: as §1

HBV (clinical isolate) = experiment: HBV infection of cryopreserved human hepatocytes (Compound 2); type: cell-based; details: Hepatitis B virus, Hepatocyte
Experimental: as §1

human hepatocytes = experiment: Cell viability of human hepatocytes (Compound 2); type: cell-based
[1] = Serum, urine and fecal bile acids and C4 in non-human primates after oral dosing; type: in vivo; details: NHPs
Experimental: as §1

[2] = Plasma concentrations of Compound 2 in non-human primates; type: in vivo; details: NHPs, 3-30 mg/kg oral once daily for 5 days
Experimental: as §1

[3] = Oral pharmacokinetics of Compound 2 in mice, rats and dogs; type: in vivo; details: across all species
Experimental: as §1

[4] = test system: HBV (HepG2 AD38 genotype D); experiment: HBV infection of primary human hepatocytes, extracellular HBV DNA by qPCR; type: cell-based, hepatitis B virus; details: for EC50: Hepatitis B virus, read-out: EC50
[5] = XTT cell toxicity in primary human hepatocytes; type: cell-based; details: human, primary human hepatocytes, read-out: TC50
Experimental: Multiplicity of Infection (MOI) is defined as the number of HBV genome equivalents, as determined by the qPCR quantitation, added per cell in the respective growth format. The overnight media was removed from the cells and replaced with 190 μL of new, serum-free HI media/4% PEG8000 and 10 μL of the diluted virus stock (HepG2 AD38 genotype D) for a MOI of 500. Medium alone was added to the cells containing compound for the parallel cytotoxicity evaluation. After 18 hours of virus infection, the cells were gently washed five times with DPBS, followed by a new addition of 200 μL HI media containing compounds on day 1, day 4 and day 7 post-infection. In one set of experiments (Study #01), the effect of giving compound 18 h prior to infection, versus 18 h post-infection was studied. The supernatant removed from the cytotoxicity plates at each medium change was stored at −20° C. for shipment to the client. The supernatant was collected at 10 days post infection and stored at −20° C. for total extracellular HBV DNA copy number to be quantitatively determined by qPCR. Cell viability was measured by XTT tetrazolium dye at day 10 for the cytotoxicity plates.
Following incubation at 37° C. in a 5% CO2 incubator for ten days, the test plates were stained with the tetrazolium dye XTT (2,3-bis(2-methoxy-4-nitro-5-sulfophenyl}-5-[(phenylamino)carbonyl]-2H-tetrazolium hydroxide). XTT-tetrazolium was metabolized by the mitochondrial enzymes of metabolically active cells to a soluble formazan product. XTT solution was prepared daily as a stock of 1 mg/mL in RPMI1640. Phenazine methosulfate (PMS) solution was prepared at 0.15 mg/mL in PBS and stored in the dark at −20° C.
XTT/PMS stock was prepared immediately before use by adding 40 μL of PMS per mL of XTT solution. Fifty microliters of XTT/PMS were added to each well of the plate and the plate was re-incubated for 4 hours at 37° C. Plates were sealed with adhesive plate sealers and shaken gently or inverted several times to mix the soluble formazan product and the plate was read spectrophotometrically at 450/650 nm with a Molecular Devices Vmax plate reader.
Each concentration of inhibitor and controls were analyzed in triplicate for HBV DNA copies and for cellular toxicity, respectively. From control wells without inhibitor, the mean of these three replicates was calculated and the HBV DNA mean was set to 100% viral control and the XTT mean was set to 100% cell viability. The effect of compound was then expressed as % of viral control and % cell viability, respectively.

- IC50 (Human NTCP): 0.0034 µM
- IC50 (ASBT): 0.193 µM
- plasma exposure versus dose [2]: increased with dose
- oral bioavailability [3]: Good oral bioavailability
SMILES: CCCCC1CN(c2ccc(F)cc2)c2cc(SC)c(OCC(C)(C)C(=O)O)cc2S(=O)(=O)N1C (stereo not drawn) [Compound 2, 3-((3-butyl-5-(4-fluorophenyl)-2-methyl-7-(methylthio)-1,1-dioxido-2,3,4,5-tetrahydro-1,2,5-benzothiadiazepin-8-yl)oxy)-2,2-dimethylpropanoic acid]
- IC50 (HBV (clinical isolate)): 0.0135 µM
- effect on cell viability (human hepatocytes): without affecting cell viability
- levels of fecal BAs [1]: did not change
- urine excretion of BAs compared with vehicle [1]: tended to increase
- serum BAs at 24 hours post-dose ([1]; 10 mg/kg): returned to baseline
- serum BAs at 24 hours post-dose ([1]; 30 mg/kg): still being elevated
- duration of increases in serum BAs ([1]; 10 and 30 mg/kg, Day 1 and Day 5): at least 8 hours
- levels of 7-alpha-hydroxy-4-cholesten-3-one (C4) ([1]; after 5 days of repeated dosing): did not change
- serum BAs ([1]; oral dosing, Day 1 and Day 5): increased in a dose-dependent manner

SMILES: CC(C)OC(=O)OCOP(=O)(CO[C@H](C)Cn1cnc2c(N)ncnc21)OCOC(=O)OC(C)C [Tenofovir disoproxil fumarate, reference compound]
- EC50 ([4]; HepG2, 18 h, Study #01, compound given 18 h post-infection): 0.02 µM
- EC50 ([4]; HepG2, Study #01, compound given 18 h prior to infection, PHH, HBV DNA): 0.043 µM
- EC50 ([4]; HepG2, Study #02, PHH): 0.064 µM
- EC50 ([4]; HepG2, Study #03, PHH): 0.059 µM
- antiviral activity/potency when given 18 h post-infection ([4]; Study #01): maintained
- Max inhibition ([4]; Study #01, 18 h post-infection): 97%
- Max inhibition ([4]; Study #01, 18 h prior to infection): 96%
- Max inhibition ([4]; Study #02): 68%
- Max inhibition ([4]; Study #03): 61%
- Max inhibition ([4]; Study #03, listed as tenofovir): ~60%
- CC50 at 10 days ([5]; Study #01, 18 h post-infection section): > 1 µM
- CC50 at 10 days ([5]; Study #01, XTT, PHH): > 1 µM
- CC50 at 10 days ([5]; Study #02): > 0.1 µM
- CC50 at 10 days ([5]; Study #03): > 0.1 µM

— patent US20230398125A1, “TREATING HEPATITIS” (Albireo AB, priority 2022, published 2023)
